Target: T1, GCase (Homo sapiens, UniProt P04062)
T1 construct: endogenous in cells; host or cells: HeLa cells
T1 sequence (P04062 40-536): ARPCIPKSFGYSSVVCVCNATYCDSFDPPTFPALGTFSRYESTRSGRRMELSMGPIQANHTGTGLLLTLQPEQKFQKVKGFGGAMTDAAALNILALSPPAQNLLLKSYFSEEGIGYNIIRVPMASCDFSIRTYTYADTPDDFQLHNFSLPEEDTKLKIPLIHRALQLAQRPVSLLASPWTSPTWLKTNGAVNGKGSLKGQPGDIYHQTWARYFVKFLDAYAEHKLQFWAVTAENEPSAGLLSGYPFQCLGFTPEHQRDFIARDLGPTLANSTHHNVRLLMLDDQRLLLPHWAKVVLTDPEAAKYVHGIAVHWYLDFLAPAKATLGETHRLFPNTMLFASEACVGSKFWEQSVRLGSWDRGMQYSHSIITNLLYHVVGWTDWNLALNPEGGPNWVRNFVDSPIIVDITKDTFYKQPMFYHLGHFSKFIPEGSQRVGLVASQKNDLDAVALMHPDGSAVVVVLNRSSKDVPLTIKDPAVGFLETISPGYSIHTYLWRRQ
Assay: activation of GCase in a live cell PFB assay in HELA cells
Assay type: cell-based
Settings: EC50 given as range classes
Experimental: Exemplary compounds were evaluated for activation of GCase in a live cell PFB assay in HELA cells (essentially as described in Ysselstein et al., “LRRK2 kinase activity regulates lysosomal glucocerebrosidase in neurons derived from Parkinson's disease patients” Nature Communications (2019) 10:5570). […] EC50 ranges: A: <10 μM; B: >10-50 μM; C: >50-100 μM; D: >100 μM.

Compared with `CCOCCN1C(=O)N(c2cc(C(F)(F)F)ccn2)C(=O)C12CCN(c1cnc3cnn(CC(F)F)c3n1)CC2` [Cmpd 822], `FC(F)Cn1ncc2ncc(N3CCCC4(CCN(c5cc(C(F)(F)F)ccn5)CC4)C3)nc21` [Cmpd 217] is lower in EC50: greater than 100 µM for the first, 10 to 50 µM for the second. The second is the more potent here.

First: Cc1nc(N2CCC3(CC2)CCN(c2cnc4c(C)nn(CC(F)F)c4n2)C3)cc(C(F)(F)F)n1 [Cmpd 582]
Second: FC(F)Cn1ncc2ncc(N3CCC4(CCN(c5ccnc(C(F)(F)F)c5)CC4)CC3)nc21 [Cmpd 812]
The EC50 of the first is higher: 10 to 50 µM for the first, less than 10 µM for the second. The second is the more potent here.

Compared with `O=C1N(c2ccc(C(F)(F)F)cn2)CCC12CCN(c1cnc3cnn(CC(F)F)c3n1)C2` (stereo not drawn) [Cmpd 202], `O=C1N(c2cnc3cnn(CC(F)F)c3n2)CCC12CN(c1ccc(C(F)(F)F)nc1)C2` [Cmpd 1010] is higher in EC50: 10 to 50 µM for the first, 50 to 100 µM for the second. The first is the more potent here.

First: FC(F)(F)c1cc(N2CC3(CCN(c4cncc(-c5nnc(C(F)(F)F)o5)n4)C3)C2)ccn1 [Cmpd 1024]
Second: FC(F)Cn1ncc2ncc(N3CC4(CCN(c5ccnc(C(F)(F)F)c5)C4)C3)nc21 [Cmpd 222]
The EC50 of the first is higher: 50 to 100 µM for the first, 10 to 50 µM for the second.

`Cc1nn(C2COC2)c2nc(N3CC4(CC3=O)CN(c3ccnc(C(F)(F)F)c3)C4)ncc12` [Cmpd 1009] and `O=C1N(c2cnc3cnn(C4COC4)c3n2)CCC12CN(c1ccnc(C(F)(F)F)c1)C2` [Cmpd 1003] fall in the same range of EC50: 10 to 50 µM for the first, 10 to 50 µM for the second.

Compared with `Cc1nn(CC(F)F)c2nc(N3CCC4(CC3)CCN(c3ccc(C(F)(F)F)nc3)C4=O)ncc12` [Cmpd 831], `Cc1cc(C(F)(F)F)ncc1N1CC2(CCN(c3cnc4cnn(CC(F)F)c4n3)CC2)CC1=O` [Cmpd 778] is lower in EC50: 10 to 50 µM for the first, less than 10 µM for the second. The second is the more potent here.

First: O=C1N(c2cncc(C(F)(F)F)n2)C(=O)C2(CCN(c3cnc4cnn(CC(F)F)c4n3)CC2)N1Cc1cc(F)cc(F)c1 [Cmpd 820]
Second: O=C1N(c2cnc3cnn(CC(F)F)c3n2)CCC12CN(c1cnc(C(F)(F)F)nc1)C2 [Cmpd 1012]
The EC50 of the first is lower: less than 10 µM for the first, 10 to 50 µM for the second.

Same assay, conditions: activation of GCase, EC50 ranges

`FC(F)Cn1ncc2ncc(N3CCC4(CCN(c5ccnc(C(F)(F)F)n5)C4)C3)nc21` (stereo not drawn) [Cmpd 484] and `FC(F)Cn1ncc2ncc(N3CCC4(CCN(c5ccnc(OCC(F)(F)F)n5)C4)CC3)nc21` [Cmpd 738] cannot be ordered by EC50: less than 10 µM for the first, less than 10 µM for the second.

First: CCc1ncc(N2CCC3(CCN(c4cnc5cnn(CC(F)F)c5n4)CC3)C2)cn1 [Cmpd 760]
Second: FC(F)Cn1ncc2ncc(N3CCC4(CCN(c5cnnc(C(F)(F)F)c5)C4)CC3)nc21 [Cmpd 731]
The EC50 of the first is lower: less than 10 µM for the first, 10 to 50 µM for the second.

Going from `O=C1CC2(CCN(c3ncc4cnn(CC(F)F)c4n3)CC2)CN1c1cc(C(F)(F)F)ccn1` [Cmpd 286] to `O=C1CC2(CCN(c3ccnc(C(F)(F)F)c3)C2)CN1c1cnc2cnn(CC(F)F)c2n1` (stereo not drawn) [Cmpd 506], the EC50 rises from less than 10 µM to greater than 100 µM.

First: FC(F)Cn1ncc2ncc(N3CCC4(CN(c5ccnc(OC(F)F)c5)C4)C3)nc21 [Cmpd 452]
Second: FC(F)Cn1ncc2ncc(N3CCC4(CN(c5cnc(OCC(F)(F)F)nc5)C4)C3)nc21 [Cmpd 439]
The EC50 of the first is lower: less than 10 µM for the first, 10 to 50 µM for the second. The first is the more potent here.

`Cc1nc(N2CC3(CCN(c4ncc5c(C)nn(CC(C)(F)F)c5n4)C3)C2)cc(C(F)(F)F)n1` [Cmpd 1127] and `CCc1nn(C2COC2)c2nc(N3CCC4(CN(c5cc(C(F)(F)F)nc(C)n5)C4)C3)ncc12` [Cmpd 1067] cannot be ordered by EC50: less than 10 µM for the first, less than 10 µM for the second.

Compared with `O=C1N(c2nnc(C(F)(F)F)o2)CCC12CCN(c1cnc3cnn(CC(F)F)c3n1)CC2` [Cmpd 839], `O=C1N(c2cc(C(F)(F)F)ccn2)C2(CC2)CC12CCN(c1cnc3cnn(CC(F)F)c3n1)CC2` [Cmpd 311] is higher in EC50: less than 10 µM for the first, 10 to 50 µM for the second. The first is the more potent here.

First: FC(F)Cn1ncc2ncc(N3CCC4(CC3)CC(COc3ccncc3C(F)(F)F)C4)nc21 [Cmpd 698]
Second: FC(F)Cn1ncc2ncc(N3CCC4(CC3)CC(Oc3ccc(C(F)(F)F)nc3)C4)nc21 [Cmpd 709]
The EC50 of the first is lower: less than 10 µM for the first, 10 to 50 µM for the second. The first is the more potent here.

`Cc1nc(N2CC3(CCN(c4cnc5c(n4)n(CC(F)F)c(=O)n5C)C3)C2)cc(C(F)(F)F)n1` [Cmpd 1077] and `Cc1nc(N2CC3(CCN(c4cnc5c(n4)n(C)c(=O)n5CC(F)F)C3)C2)cc(C(F)(F)F)n1` [Cmpd 1078] cannot be ordered by EC50: less than 10 µM for the first, less than 10 µM for the second.

First: FC(F)(F)c1cc(N2CC3(CCN(c4cnc5cnn(C6CCOCC6)c5n4)C3)C2)ccn1 [Cmpd 1090]
Second: CCc1nn(C2COC2)c2nc(N3CCC4(CN(c5ccnc(C(F)(F)F)c5)C4)C3)cnc12 [Cmpd 1069]
The EC50 of the first is higher: greater than 100 µM for the first, 10 to 50 µM for the second. The second is the more potent here.

`Fc1cc(F)cc(OC2CC3(CCCN(c4cnc5cnn(CC(F)(F)F)c5n4)C3)C2)c1` (stereo not drawn) [Compound 33, 2-(3,5-difluorophenoxy)-6-[1-(2,2,2-trifluoroethyl)-1H-pyrazolo[3,4-b]pyrazin-6-yl]-6-azaspiro[3.5]nonane] and `Fc1ccc(F)c(OC2CC3(CCCN(c4cnc5cnn(CC(F)(F)F)c5n4)C3)C2)c1` (stereo not drawn) [Compound 30, 2-(2,5-difluorophenoxy)-6-[1-(2,2,2-trifluoroethyl)-1H-pyrazolo[3,4-b]pyrazin-6-yl]-6-azaspiro[3.5]nonane] fall in the same range of EC50: 10 to 50 µM for the first, 10 to 50 µM for the second.

`CCOc1nn(CC(F)F)c2nc(N3CCC4(CC3)CC(=O)N(c3ccc(C(F)(F)F)nc3)C4)ncc12` [Cmpd 949] and `COc1nn(C2COC2)c2nc(N3CCC4(CC3)CC(=O)N(c3ccc(C(F)(F)F)nc3)C4)ncc12` [Cmpd 952] fall in the same range of EC50: 10 to 50 µM for the first, 10 to 50 µM for the second.

First: CC(C)Oc1cncc(N2CCC3(CCN(c4ccc(C(F)(F)F)nc4)C3)CC2)n1 [Cmpd 254]
Second: O=C1CC2(CCN(c3cncc(-c4nncs4)n3)CC2)CN1c1ccc(C(F)(F)F)nc1 [Cmpd 236]
The EC50 of the first is higher: 10 to 50 µM for the first, less than 10 µM for the second. The second is the more potent here.

Compared with `Cc1nc(N2CC3(CCN(c4cncc(-c5cnn(CC(F)F)c5)n4)C3)C2)cc(C(F)(F)F)n1` [Cmpd 1124], `FC(F)Cn1ncc2ncc(N3CCC4(CN(c5cncc(C(F)(F)F)n5)C4)C3)nc21` [Cmpd 298] is higher in EC50: 50 to 100 µM for the first, greater than 100 µM for the second.

`O=C1N(c2ccc(C(F)(F)F)nc2)CC(c2ccccc2)C12CCN(c1cnc3cnn(CC(F)F)c3n1)CC2` (stereo not drawn) [Cmpd 247] and `CN1C(=O)N(c2ccc(C(F)(F)F)nc2)C(=O)C12CCN(c1cnc3cnn(CC(F)F)c3n1)CC2` [Cmpd 879] cannot be ordered by EC50: less than 10 µM for the first, less than 10 µM for the second.

`C[C@H]1CN(c2cnc3cnn(CC(F)F)c3n2)CC[C@@]12CCN(c1cccc(C(F)(F)F)n1)C2=O` (racemic) [Cmpd 669] and `O=C1N(c2cccc(C(F)(F)F)n2)CCC12CCCN(c1cnc3cnn(CC(F)F)c3n1)C2` (stereo not drawn) [Compound 96, 7-[1-(2,2-difluoroethyl)-1H-pyrazolo[3,4-b]pyrazin-6-yl]-2-[6-(trifluoromethyl)pyridin-2-yl]-2,7-diazaspiro[4.5]decan-1-one] fall in the same range of EC50: 10 to 50 µM for the first, 10 to 50 µM for the second.

Compared with `FC(F)Cn1ncc2ncc(N3CCCC4(CN(c5ccc(C(F)(F)F)cn5)C4)C3)nc21` [Compound 41, 6-[1-(2,2-difluoroethyl)-1H-pyrazolo[3,4-b]pyrazin-6-yl]-2-[5-(trifluoromethyl)pyridin-2-yl]-2,6-diazaspiro[3.5]nonane], `FC(F)Cn1ncc2ncc(N3CCC4(CN(Cc5ccc(C(F)(F)F)cn5)C4)C3)nc21` [Cmpd 321] is lower in EC50: 50 to 100 µM for the first, less than 10 µM for the second.

First: Fc1ccc(N2CCC3(CCN(c4cnc5cnn(CC(F)F)c5n4)CC3)C2)c(F)c1 [Cmpd 730]
Second: Cc1nc(C(F)(F)F)ncc1N1CCC2(CCN(c3cnc4cnn(CC(F)F)c4n3)CC2)C1 [Cmpd 761]
The EC50 of the first is higher: 10 to 50 µM for the first, less than 10 µM for the second. The second is the more potent here.

`CC1CC2(CCN(c3cnc4cnn(CC(F)F)c4n3)CC2)CN1c1ccc(C(F)(F)F)nc1` (stereo not drawn) [Cmpd 265] and `O=C1CC2(CCN(c3cnc4cnn(CC(F)F)c4n3)CC2)CN1c1ccc(Cl)nc1` [Cmpd 891] fall in the same range of EC50: 10 to 50 µM for the first, 10 to 50 µM for the second.

First: Cc1ncc(-c2nncs2)nc1N1CCC2(CN(c3cnc(C(F)(F)F)nc3)C2)C1 [Cmpd 1038]
Second: Cc1nc2cnn(CC(F)F)c2nc1N1CCC2(CN(c3ccnc(C(F)(F)F)c3)C2)C1 [Cmpd 1035]
The EC50 of the first is higher: 10 to 50 µM for the first, less than 10 µM for the second.

`O=C1CC2(CN(c3cnc4cnn(CC(F)F)c4n3)C2)CN1c1ccnc(C(F)(F)F)c1` [Cmpd 338] and `O=C1CC2(CN(c3cnc4cnn(C5COC5)c4n3)C2)CN1c1ccnc(C(F)(F)F)c1` [Cmpd 348] fall in the same range of EC50: 10 to 50 µM for the first, 10 to 50 µM for the second.

First: Cc1nn(CC(F)F)c2nc(N3CCC4(CCN(c5ccnc(C(F)(F)F)c5)C4=O)C3)ncc12 (stereo not drawn) [Cmpd 515]
Second: Cc1nc(N2CCC3(CCN(c4ncc5cnn(CC(F)F)c5n4)C3)C2)cc(C(F)(F)F)n1 (stereo not drawn) [Cmpd 540]
The EC50 of the first is lower: less than 10 µM for the first, 10 to 50 µM for the second. The first is the more potent here.

`O=C1CC2(CCN(c3cnc4cnn(CC(F)F)c4n3)CC2)CN1Cc1cc(F)cc(F)c1` [Cmpd 363] and `FC(F)Cn1ncc2ncc(N3CCC4(CCC(Oc5cccnc5C(F)(F)F)C4)CC3)nc21` (stereo not drawn) [Compound 86, 8-[1-(2,2-difluoroethyl)-1H-pyrazolo[3,4-b]pyrazin-6-yl]-2-{[2-(trifluoromethyl)pyridin-3-yl]oxy}-8-azaspiro[4.5]decane] cannot be ordered by EC50: less than 10 µM for the first, less than 10 µM for the second.

First: Cc1nc(N2CC3(CCN(c4ncc5cnn(CC(F)(F)F)c5n4)CC3)C2)cc(C(F)(F)F)n1 [Cmpd 566]
Second: Cc1cc(N2CC3(CCN(c4cnc5cnn(CC(F)(F)F)c5n4)C3)C2)nc(C(F)(F)F)n1 [Cmpd 463]
The EC50 of the first is lower: less than 10 µM for the first, 10 to 50 µM for the second. The first is the more potent here.

Compared with `COc1nn(CC(F)F)c2nc(N3CCC4(CCN(c5cc(C)nc(C(F)(F)F)n5)C4)CC3)cnc12` [Cmpd 1098], `Cc1nc(N2CC3(CCN(c4cnc5cnn([C@H]6CCOC6)c5n4)C3)C2)cc(C(F)(F)F)n1` [Cmpd 1145] is higher in EC50: less than 10 µM for the first, 10 to 50 µM for the second. The first is the more potent here.

`Cn1c(N2CCC3(CCN(c4nccc(C(F)(F)F)n4)C3)CC2)nc2c(cnn2C2COC2)c1=O` [Cmpd 1057] gave an EC50 of 10 to 50 µM.
